PMC11714206, “Massively Parallel Screening of Toll/Interleukin‐1 Receptor (TIR)‐Derived Peptides Reveals Multiple Toll‐Like Receptors (TLRs)‐Targeting Immunomodulatory Peptides” (Advanced Science, 2024)

Target: T1, MyD88^TIR (Homo sapiens, UniProt Q99836)
T1 construct: MyD88 (residues 148–296); 6xHis; made in house; host or cells: E. coli BL21 (DE3)
Experiment: T‐Surf phage library (P8 and P3) selection against MyD88^TIR, four rounds, NGS read counts
Format: binding
Settings: for P3_MyD88 Rank (after) / P3_MyD88 Rank (before): P3 library; for Population: 4th round of selection against MyD88 TIR, share of NGS reads; for P8_MyD88 Rank (after) / P8_MyD88 Rank (before): P8 library
Method in brief: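 Read counts come from NGS of phage pools enriched over four selection rounds on the plate‐coated TIR domain (5 µg mL^−1). Each round: 1 h phage binding at room temperature after 0.2% BSA blocking, Tween washes, acid elution, amplification in E. coli TG1 with M13KO7 helper.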

[1] = selection against MyD88 TIR, rank by count after grouping
[2] = selection against MyD88 TIR, rank by count before grouping
[3] = 4R selection against MyD88, rank after grouping
[4] = 4R selection against MyD88, rank before grouping
[5] = selection against MyD88, rank after grouping
[6] = selection against MyD88, rank before grouping
[7] = P3_MyD88: rank by count after grouping
[8] = P3_MyD88: rank by count before grouping
[9] = P3_MyD88 pool: P3 T-Surf phage library
[10] = selection against MyD88, rank by count after grouping
[11] = selection against MyD88, rank by count before grouping
[12] = P8_MyD88: rank by count after grouping
[13] = P8_MyD88: rank by count before grouping
[14] = P8_MyD88 pool: P8 T-Surf phage library
[15] = P8_MyD88: rank by NGS read count after grouping
[16] = P8_MyD88: rank by NGS read count before grouping

T1 sequence (Q99836 148-296): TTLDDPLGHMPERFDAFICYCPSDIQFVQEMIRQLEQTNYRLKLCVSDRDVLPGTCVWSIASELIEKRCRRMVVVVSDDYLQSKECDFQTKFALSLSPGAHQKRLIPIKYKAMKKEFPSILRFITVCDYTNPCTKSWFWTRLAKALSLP

SSFRERLCRLLELSKK
P3_MyD88 Rank (after) [1]: 235
P3_MyD88 Rank (before) [2]: 3242

SSFRERLWRLLELIKK
P3_MyD88 Rank (after) [3]: 644
P3_MyD88 Rank (before) [4]: 3246

SSFRERLWRPVALSKK
P3_MyD88 Rank (after) [5]: 493
P3_MyD88 Rank (before) [6]: 3227

SSFRESLWRLLALNKR
Rank (after) [7]: 395
Rank (before) [8]: 3228

SSFRESLWRLLELSKK
Population [9]: 0.0032%

SSFRGGLWRLLELRKE
P3_MyD88 Rank (after) [5]: 528
P3_MyD88 Rank (before) [6]: 3131

SSFRGGLWRLLELSKK
Population [9]: 0.00349%

SSFRKGLWRLLELLKK
Rank (after) [7]: 150
Rank (before) [8]: 3231

SSFRKGLWRLLELSKK
Population [9]: 0.00408%

SSFRKGVWRVRKLSKK
P3_MyD88 Rank (after) [10]: 717
P3_MyD88 Rank (before) [11]: 3230

SSFRQGLWRLRELSKK
Rank (after) [7]: 405
Rank (before) [8]: 3229

SSFRRPVASAGTEQK
Rank (after) [7]: 471
Rank (before) [8]: 3247

SSFRVGLWRLLELSKK
Population [9]: 0.00291%

SSFSEGLWRLLELRKK
P3_MyD88 Rank (after) [1]: 191
P3_MyD88 Rank (before) [2]: 3251

SSGRECLWRLLELRKK
Rank (after) [7]: 415
Rank (before) [8]: 3270

SSICEGLWRLLELSKK
Rank (after) [7]: 453
Rank (before) [8]: 3276

SSIREGLWRQLELSKK
P3_MyD88 Rank (after) [3]: 665
P3_MyD88 Rank (before) [4]: 3277

SSLLEGRWALLELSKK
Rank (after) [7]: 459
Rank (before) [8]: 3253

SSLREGLWPLLELSKK
Rank (after) [7]: 94
Rank (before) [8]: 1214

SSLREGLWRLLELGKK
P3_MyD88 Rank (after) [3]: 597
P3_MyD88 Rank (before) [4]: 3255

SSLREGLWRLLELSKK
Population [9]: 0.00291%

SSLREGLWRLLELSKR
P3_MyD88 Rank (after) [1]: 209
P3_MyD88 Rank (before) [2]: 3257

SSLREGLWRLQELSKK
Rank (after) [7]: 135
Rank (before) [8]: 3273

SSRRERLWRLLELSKK
Rank (after) [7]: 424
Rank (before) [8]: 3274

SSRWALDELVHIMQAL
Rank (after) [12]: 161
Rank (before) [13]: 179
Population [14]: 0.00771%

SSRWALDELVQILHARELF
Rank (after) [15]: 887
Rank (before) [16]: 3809

SSSFALHELATILEAL
Rank (after) [12]: 412
Rank (before) [13]: 1290

SSSREGLWRLLELSKK
Population [9]: 0.0032%

SSTWALDELERILEYM
P8_MyD88 Rank (after) [1]: 198
P8_MyD88 Rank (before) [2]: 294

SSVRECLWRLLELSKK
P3_MyD88 Rank (after) [5]: 516
P3_MyD88 Rank (before) [6]: 3268

SSVRGGRWGLVELGKK
Rank (after) [7]: 455
Rank (before) [8]: 3269

SSWREGLCRLLELRNK
P3_MyD88 Rank (after) [5]: 501
P3_MyD88 Rank (before) [6]: 3264

SSWWALEELAHIIE
P8_MyD88 Rank (after) [3]: 634
P8_MyD88 Rank (before) [4]: 3803

SSYRESLRRLPALSKK
P3_MyD88 Rank (after) [10]: 739
P3_MyD88 Rank (before) [11]: 3266

SSYRQGLWRLLELSKK
P3_MyD88 Rank (after) [5]: 485
P3_MyD88 Rank (before) [6]: 3267

STAMTNRGFHTFRDND
P3_MyD88 Rank (after) [10]: 688
P3_MyD88 Rank (before) [11]: 1427

STTYLQWGDNWFWDKL
P8_MyD88 Rank (after) [10]: 740
P8_MyD88 Rank (before) [11]: 3819

SWAVDELLKILQAWDE
Rank (after) [12]: 137
Rank (before) [13]: 151
Population [14]: 0.0108%

SWAVDELLQILHARELF
P8_MyD88 Rank (after) [3]: 625
P8_MyD88 Rank (before) [4]: 3756

SWGQSFLKSPLGWLFA
P3_MyD88 Rank (after) [1]: 272
P3_MyD88 Rank (before) [2]: 2936

SWYLDEVAKIIDAMKE
Rank (after) [12]: 133
Rank (before) [13]: 144
Population [14]: 0.0116%

TEPADTAFWDALWNKL
Rank (after) [12]: 188
Rank (before) [13]: 237

THSHNAVPAAANLSGW
Rank (after) [7]: 404
Rank (before) [8]: 3289

TSHFLDSYWAMFELNM
Rank (after) [12]: 140
Rank (before) [13]: 152
Population [14]: 0.01%

TSHLHHAPRPNEIETL
P3_MyD88 Rank (after) [3]: 653
P3_MyD88 Rank (before) [4]: 3323

TSHLHRAWRLNELRTY
P3_MyD88 Rank (after) [1]: 284
P3_MyD88 Rank (before) [2]: 3294

TSTWALDELLRILY
Rank (after) [15]: 912
Rank (before) [16]: 3824

TSTWALDELWLILEQR
Population [14]: 0.0262%

TYLWWVEDERGQEYFW
P8_MyD88 Rank (after) [1]: 221
P8_MyD88 Rank (before) [2]: 370

VANIGLIGSILWALK
Rank (after) [15]: 942
Rank (before) [16]: 2163

VANILGCHWIDWECFV
Rank (after) [12]: 464
Rank (before) [13]: 2165

VANILGYHCIDWEHFVGIED
P8_MyD88 Rank (after) [10]: 722
P8_MyD88 Rank (before) [11]: 2169

VANILGYHCKGWENFV
P8_MyD88 Rank (after) [3]: 674
P8_MyD88 Rank (before) [4]: 2170

VANILGYHWFDWEYFVVIGD
Rank (after) [15]: 875
Rank (before) [16]: 2171

VANILGYHWIAREHFV
Rank (after) [12]: 474
Rank (before) [13]: 2164

VANILGYHWMDWVYFV
P8_MyD88 Rank (after) [5]: 563
P8_MyD88 Rank (before) [6]: 2191

VASHWALEELRMIMDF
Rank (after) [12]: 160
Rank (before) [13]: 177
Population [14]: 0.00771%

VDPSHLRKQSGEFG
P3_MyD88 Rank (after) [10]: 683
P3_MyD88 Rank (before) [11]: 1770

VDPTHIRNQTGRYEKA
P3_MyD88 Rank (after) [3]: 642
P3_MyD88 Rank (before) [4]: 1768

VGKLKKGESFAPELLR
P3_MyD88 Rank (after) [1]: 229
P3_MyD88 Rank (before) [2]: 1765

VQCGDPWCWEKLAYAM
P8_MyD88 Rank (after) [3]: 596
P8_MyD88 Rank (before) [4]: 2212

VQWADPWFWDKLAYEK
Rank (after) [15]: 1016
Rank (before) [16]: 2215

VQWDDPWFWDKLAY
P8_MyD88 Rank (after) [3]: 623
P8_MyD88 Rank (before) [4]: 2231

VQWDDPWFWDKLAYA
Rank (after) [12]: 417
Rank (before) [13]: 1009

VQWDDSWFWEKLLYA
Rank (after) [15]: 1018
Rank (before) [16]: 2248

VQWDELLQILHARELF
Rank (after) [15]: 965
Rank (before) [16]: 2249

VQWEDPWFWDKLAYEM
Rank (after) [12]: 460
Rank (before) [13]: 2253

VRHTFAGYLYDALNRL
Rank (after) [12]: 141
Rank (before) [13]: 155
Population [14]: 0.01%

VSHLIDAFERYGIMFFIDT
P8_MyD88 Rank (after) [5]: 572
P8_MyD88 Rank (before) [6]: 2260

VSHLSDSFERYGIMFF
P8_MyD88 Rank (after) [10]: 731
P8_MyD88 Rank (before) [11]: 2266

VSSFISYLIAAFNRQG
Rank (after) [12]: 116
Rank (before) [13]: 124
Population [14]: 0.0173%

VTSSWALEELRHIMEL
Rank (after) [15]: 947
Rank (before) [16]: 2269

WAFASNMAQFWDRLYS
Rank (after) [15]: 878
Rank (before) [16]: 1395

WALAELLKILYAKEPM
P8_MyD88 Rank (after) [10]: 763
P8_MyD88 Rank (before) [11]: 1399

WALAELLQLLHARELF
Rank (after) [12]: 395
Rank (before) [13]: 1410

WALDDLLQILQARELF
Rank (after) [15]: 988
Rank (before) [16]: 1523

WALDELLKFCMRMKP
P8_MyD88 Rank (after) [5]: 520
P8_MyD88 Rank (before) [6]: 1471
